Test results from patent US20190315775A1, “MODIFIED […] AND PHARMACEUTICAL COMPOSITION HAVING SAME AS ACTIVE INGREDIENT” (KEIO UNIVERSITY, priority 2016, published 2019).

Columns and labels:
[1] = Stability in mouse blood after intraperitoneal administration (HPLC); assay type: in vivo, ICR mice; conditions: for Residual drug within the abdominal cavity: after intraperitoneal administration to mice; for Stability in mouse blood: i.p., equimolar to 20 mg/kg BW TC11, HPLC peaks 0.5-1.5 hours after administration
Procedure: First, PEG11(E)-TC11(A) and PEG11(O)-TC11(B) were examined for stability in mouse blood. To 5-week-old male ICR mice (CLEA Japan, Tokyo, Japan), PEG11(E)-TC11 and PEG11(O)-TC11 were administered intraperitoneally at 59.1 mg/kg BW and 54.6 mg/kg BW, respectively, in such a manner that each molar concentration was equivalent to that of 20 mg/kg BW of TC11. At 0, 0.5, 1, 1.5, 4, 8, 12, and 24 hours later, a tail vein was punctured with a 26G needle for bleeding, and then about 100 μL of blood was collected using a heparinized hematocrit capillary tube (Terumo, Tokyo, Japan). After blood collection, blood was transferred into a 0.5-mL tube, and then subjected to centrifugation at 4° C. and 3,400 G for 15 minutes. Subsequently, the supernatant was collected, and then cryopreserved at −80° C. A quality control serum, Consera (registered trademark) (Nissui pharmaceutical, Tokyo, Japan) was dissolved in 3 mL of distilled water (dH2O) per bottle. After left to stand for 30 minutes, bottles were turned upside-down (mixing by inversion) and then used. Consera (190 μL) was mixed with the collected blood plasma and 10 μL of urine, thereby preparing samples. Moreover, PEG11(E)-TC11 and HOEtO-TC11 were each diluted with dH2O in such a manner that the concentrations were 0, 2, 4, 6, 8, and 10 μM, and then 10 μL of the solution at each concentration and 190 μL of Consera were mixed, thereby preparing a calibration curve sample. Sep-Pak (registered trademark) C18 solid phase extraction cartridge (Waters Associates, Massachusetts, USA) was washed with 2 mL of 100% CH3CN, and then equilibrated with 4 mL of dH2O. Each sample and a sample for preparing a calibration curve were added to the cartridge, and then rinsed with 200 μL of dH2O. Subsequently, the resultant was washed with 2 mL of dH2O, 2 mL of 40% CH3CN, and 250 μL of 100% CH3CN, and then eluted with 1 mL of 100% CH3CN. The eluate was evaporated under vacuum using a centrifugal evaporator CVE-2000 (TOKYO […] CO, LTD, Tokyo, Japan), re-dissolution was performed with 100 μL of 100% EtOH, and then filtration was performed using a chromatodisc having a pore size of 0.45 μm (GL sciences, Tokyo, Japan). The high performance liquid chromatography (High Performance Liquid Chromatography; HPLC) apparatuses used herein are the following apparatuses manufactured by JASCO (Tokyo, Japan).
HPLC analysis was conducted using Inertsil (registered trademark) ODS-3 […]×Φ4.6 mm as a stationary phase, CH3CN:dH2O=50:50 as a mobile phase, a flow rate of 0.70 mL/min, a UV detection wavelength of 267 nm, and an excitation wavelength of 380 nm, a fluorescence wavelength of 530 nm, and an injection amount of 10 μL at a column temperature of 25° C.

[2] = system: HeLa (human cervical cancer cells); assay: WST-1 proliferation assay (Example 10), HeLa; assay type: cell-based; conditions: WST-1, 48 hours
Procedure: (§1) Cancer cells used herein were KMS34 (human myeloma cells), HeLa (human cervical cancer cells), HCT116 (human colon cancer cells; p53+/+), KATOIII (human stomach cancer cells), MDA-MB-231 (human breast cancer cells), HT-29 (human colon adenocarcinoma cells), PANC-1 (human pancreatic cancer cells), and Li-7 (human liver cancer cells). Proliferation assay of various cancer cells was performed by the WST-1 method (Cook, J A. & Mitchell, J B., Anal. Biochem., 179, 1-7, 1984) as follows. One μ1 each of PEG11(E)-TC11 and PEG11(O)-TC11 prepared in advance at target concentrations was added into each well of a 96-well microplate. Medium was added to the wells at 50 μl per well, and then mixed by tapping lightly the plate. Subsequently, KMS34 was prepared at a concentration of 5×10^5 cells/ml, and cells other than KMS34 were prepared at a concentration of 2×10^5 cells/ml. Cells were seeded at 50 μl per well (2.5×10^4 cells, 1×10^4 cells), and then incubated in a CO2 incubator (37° C., 5% CO2) for 48 hours. […] Subsequently, the plate was shaken with a plate reader for 1 minute, and then absorbance was measured at 450 nm. At this time, absorbance was also measured at 595 nm as a reference wavelength. The net absorbance was obtained by subtracting the absorbance at the reference wavelength from the absorbance at 450 nm.

[3] = system: HCT116 (human colon cancer cells; p53+/+); assay: WST-1 proliferation assay (Example 10), HCT116; assay type: cell-based; conditions: HCT-116, WST-1, 48 hours
Procedure: as §1

[4] = system: KATOIII (human stomach cancer cells); assay: WST-1 proliferation assay (Example 10), KATOIII; assay type: cell-based; conditions: KATO III, WST-1, 48 hours
Procedure: as §1

[5] = system: HT-29 (human colon adenocarcinoma cells); assay: WST-1 proliferation assay (Example 10), HT-29; assay type: cell-based; conditions: WST-1, 48 hours
Procedure: as §1

[6] = system: PANC-1 (human pancreatic cancer cells); assay: WST-1 proliferation assay (Example 10), PANC-1; assay type: cell-based; conditions: WST-1, 48 hours
Procedure: as §1

[7] = system: bone marrow stromal cell-derived normal cells (WT); assay: WST-1 proliferation assay (Example 11), normal cells; assay type: cell-based; conditions: WST-1, 48 hours, FIG. 6
Procedure: Proliferation assay of cancer cells and normal cells was performed using WST-1 as follows. One μ1 each of PEG11(E)-TC11 and TC11 prepared at target concentrations was added to each well of a 96-well microplate. Medium was added to the wells at 50 μl per well, and then mixed by tapping lightly the plate. Next, high-risk MM cells (KMS34) prepared at 5×10^5 cells/ml and bone marrow stromal cell-derived normal cells (WT) prepared at 2×10^5 cells/ml were seeded at 50 μl (2.5×10^4 cells and 1×10^4 cells, respectively) per well, and then incubated in a CO2 incubator (37° C., 5% CO2) for 48 hours. Ten (10) μ1 each of cell proliferation reagent WST-1 (Roche) was added to each well after incubation, and then the resultants were mixed by lightly tapping the plate, followed by 1 hour of reaction in the CO2 incubator. Subsequently, the plate was shaken with a plate reader for 1 minute, and then absorbance was measured at 450 nm. At this time, absorbance was also measured at 595 nm as a reference wavelength. The net absorbance was obtained by subtracting the absorbance at the reference wavelength from the absorbance at 450 nm.

Row | Residual drug within the abdominal cavity [1] | IC50 [2] | IC50 [3] | IC50 [4] | IC50 [5] | IC50 [6] | SMILES | Stability in mouse blood [1] | Proliferation inhibitory activity against bone marrow stromal cell-derived normal cells (WT) [7]
1 | no residual drug was observed | 5.4 µM | 9 µM | 7.9 µM | 20.5 µM | 14 µM | COCCOCCOCCOCCOCCOCCOCCOCCOCCOCCOCCOCCC(=O)OCCOc1cc2c(cc1N)C(=O)N(c1c(C(C)C)cccc1C(C)C)C2=O [PEG11(E)-TC11] | quickly hydrolyzed with esterase in blood, and converted to HOEtO-TC11 | no proliferation inhibitory activity
2 | no residual drug was observed | 18.1 µM | 34.5 µM | 21 µM | 11.4 µM | 75 µM | COCCOCCOCCOCCOCCOCCOCCOCCOCCOCCOCCOCCOc1cc2c(cc1N)C(=O)N(c1c(C(C)C)cccc1C(C)C)C2=O [PEG11(O)-TC11] | not degraded with esterase in blood | –
3 | – | – | – | – | – | – | CC(C)c1cccc(C(C)C)c1N1C(=O)c2ccc(N)cc2C1=O [TC11, 2-(2,6-di-isopropylphenyl)-5-amino-1H-isoindole-1,3-dione, reference compound] | – | no proliferation inhibitory activity
